Test results published in EP4206196A1, “PYRIMIDINE SUBSTITUTED DERIVATIVES AS TYK2 INHIBITORS” (Almirall S.A., priority 2021, dated 2023).
pIC50, pKd: −log10 of the molar value.

Legend:
[1] = biological target: T1, TYK2 (JH2domain-pseudokinase) (Homo sapiens, UniProt P29597); assay: TYK2 JH2 domain binding assay (KINOMEscan)
T1 construct: TYK2 (JH2domain-pseudokinase)-tagged T7 phage strains were prepared in an E. coli host derived from the BL21 strain; made in house; host or cells: E. coli BL21-derived host (T7 phage) or HEK-293 cells
T1 sequence (P29597 589-875 limits assumed): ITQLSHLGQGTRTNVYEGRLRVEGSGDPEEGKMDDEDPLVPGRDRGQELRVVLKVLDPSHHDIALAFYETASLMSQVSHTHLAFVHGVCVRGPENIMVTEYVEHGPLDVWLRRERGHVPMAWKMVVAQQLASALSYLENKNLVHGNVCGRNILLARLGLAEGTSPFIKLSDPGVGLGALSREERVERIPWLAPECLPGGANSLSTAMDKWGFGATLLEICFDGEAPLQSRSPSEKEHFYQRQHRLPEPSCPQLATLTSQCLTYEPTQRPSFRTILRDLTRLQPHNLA
Method: TYK2 (JH2domain-pseudokinase) KINOMEscan assay. For the assay, TYK2 (JH2domain-pseudokinase)-tagged T7 phage strains were prepared in an E. coli host derived from the BL21 strain.E. coli were grown to log-phase and infected with T7 phage and incubated with shaking at 32°C until lysis. The lysates were centrifuged and filtered to remove cell debris. The remaining TYK2 (JH2domain-pseudokinase) were produced in HEK-293 cells and subsequently tagged with DNA for qPCR detection. Streptavidin-coated magnetic beads were treated with biotinylated small molecule ligands for 30 minutes at room temperature to generate affinity resins for kinase assays. The liganded beads were blocked with excess biotin and washed with blocking buffer (SeaBlock (Pierce), 1% BSA, 0.05% Tween 20, 1 mM DTT) to remove unbound ligand and to reduce non-specific binding. Binding reactions were assembled by combining TYK2 (JH2domain-pseudokinase), liganded affinity beads, and test compounds in 1x binding buffer (20% SeaBlock, 0.17x PBS, 0.05% Tween 20, 6 mM DTT). Test compounds were prepared as 111X stocks in 100% DMSO. Kds were determined using an 11-point 3-fold compound dilution series with three DMSO control points. All compounds for Kd measurements are distributed by acoustic transfer (non-contact dispensing) in 100% DMSO. The compounds were then diluted directly into the assays such that the final concentration of DMSO was 0.9%. All reactions performed in polypropylene 384-well plate. Each was a final volume of 0.02 ml. The assay plates were incubated at room temperature with shaking for 1 hour and the affinity beads were washed with wash buffer (1x PBS, 0.05% Tween 20). The beads were then re-suspended in elution buffer (1x PBS, 0.05% Tween 20, 0.5 µM non-biotinylated affinity ligand) and incubated at room temperature with shaking for 30 minutes. The kinase concentration in the eluates was measured by qPCR. […]
An 11-point 3-fold serial dilution of each test compound was prepared in 100% DMSO at 100x final test concentration and subsequently diluted to 1x in the assay (final DMSO concentration = 1%). Most Kds were determined using a compound top concentration = 30,000 nM. If the initial Kd determined was < 0.5 nM (the lowest concentration tested), the measurement was repeated with a serial dilution starting at a lower top concentration.
Curves were fitted using a non-linear least square fit with the Levenberg-Marquardt algorithm. […] TABLE 1: Kd Affinities for Tyk2 JH2 Domain Binding Assay.

[2] = tested on: STAT1/3 through TYK2/JAK1; assay: IFNa induced STAT phosphorylation in HEK293 cells (SIE-bla reporter gene); assay type: cell-based; conditions: Homo sapiens, HEK293; HEK293T-sie-bla cells, IFNa at EC80, 4 hours; read-out: Inhibition of IFNa induced STAT phosphorylation HEK293 cells IC50
Method: Stimulation of HEK293T-sie-bla cells with interferon alpha (INFa) activates the signaling pathway of STAT1/3 through TYK2/JAK1. In this assay, measurement of the activity of the reporter gene […]-lactamase expression was used as the readout.
CellSensorTM SIE-bla HEK293T cell line were purchased from Thermo Fisher Scientific (ref. #K1649B) and cultured as specified by the provider. A number of 30.000 cells per well (40 µl) were plated in a 384-well plate (Corning ref.# 3712) and cultured overnight at 37°C with 5% CO2 in a complete Optimem media (ThermoFisher ref. #11058-021) containing 0.5% (v/v) heat inactivated dialyzed FBS (Life Technologies ref. #26400044), 10 µM non-essential aminoacids NEAA (Sigma ref. #M7145), 100 µM Sodium Pyruvate (Gibco ref. #11360-039) and 100 U/mL Penicillin (Sigma ref. #P0781). Compounds were initially dissolved in 100% DMSO. Compound curves were then prepared using a 1/5 serial dilution (10 dilutions). The dilutions were directly diluted in complete Optimem media at 40-fold their final concentration in 20% DMSO. IFNa initial solution (R&D systems ref. #11100-1) was prepared at 10-fold its EC80 in complete Optimem media. Compounds and IFNa were added simultaneously to the wells with cells and incubated during 4 hours at 37°C (the final DMSO was 0.1%). The […]-lactamase substrate (LifeTechnologies ref.#K1138) was prepared at 6-fold its final concentration as specified by the provider. Then 10 µL of the mixture was added to the wells to stop the stimulation. Plate was left in the dark over-night. Then a FRET reading was performed on an appropriate plate reader.
All experiments were analysed using an ExcelFit template and the four-parameter log equation. […] TABLE 2: IC50 Inhibitions of IFNa induced STAT phosphorylation in HEK293 cells

Row | pKd [1] | pIC50 [2] | SMILES
1 | 9.00 to 9.70 | 7.00 to 8.00 | COc1cc(-c2cnn(C)c2C)c(C)nc1Nc1cc(Nc2cc(C)ncn2)ncn1 [Example 176, N6-[5-(1,5-dimethylpyrazol-4-yl)-3-methoxy-6-methyl-2-pyridyl]-N4-(6-methylpyrimidin-4-yl)pyrimidine-4,6-diamine]
2 | > 9.70 | 7.00 to 8.00 | Cc1cc(Nc2cc(Nc3ncc(-c4cc(C)nn4C)cc3N(C)S(C)(=O)=O)ncn2)nc(C)n1 [Example 129, N-[5-(2,5-dimethylpyrazol-3-yl)-2-[[6-[(2,6-dimethylpyrimidin-4-yl)amino]pyrimidin-4-yl]amino]-3-pyridyl]-N-methyl-methanesulfonamide]
3 | > 9.70 | > 8.00 | C=Cc1ccc(Nc2cc(Nc3cc(C)nc(C)n3)ncn2)c(N(C)S(C)(=O)=O)c1 [Example 108, N-[2-[[6-[(2,6-dimethylpyrimidin-4-yl)amino]pyrimidin-4-yl]amino]-5-vinyl-phenyl]-N-methyl-methanesulfonamide]
4 | 9.00 to 9.70 | 7.00 to 8.00 | Cc1cc(Nc2cc(Nc3ncc(C4CCOCC4)cc3N(C)S(C)(=O)=O)ncn2)nc(C)n1 [Example 157, N-[2-[[6-[(2,6-dimethylpyrimidin-4-yl)amino]pyrimidin-4-yl]amino]-5-(oxan-4-yl)pyridin-3-yl]-N-methylmethanesulfonamide]
5 | > 9.70 | 7.00 to 8.00 | Cc1cc(Nc2cc(Nc3ccc(-c4cn[nH]c4C)cc3N(C)S(C)(=O)=O)ncn2)nc(C)n1 [Example 89, N-[2-[[6-[(2,6-dimethylpyrimidin-4-yl)amino]pyrimidin-4-yl]amino]-5-(5-methyl-1H-pyrazol-4-yl)phenyl]-N-methyl-methanesulfonamide]
6 | > 9.70 | 7.00 to 8.00 | Cc1cc(Nc2cc(Nc3ccc(-c4nc(C)n(C)n4)cc3N(C)S(C)(=O)=O)ncn2)nc(C)n1 [Example 97, N-[2-[[6-[(2,6-dimethylpyrimidin-4-yl)amino]pyrimidin-4-yl]amino]-5-(1,5-dimethyl-1,2,4-triazol-3-yl)phenyl]-N-methyl-methanesulfonamide]
7 | > 9.70 | 7.00 to 8.00 | Cc1cc(Nc2cc(Nc3ccccc3N(C)S(C)(=O)=O)ncn2)ncc1F [Example 101, N-[2-[[6-[(5-fluoro-4-methyl-2-pyridyl)amino]pyrimidin-4-yl]amino]phenyl]-N-methyl-methanesulfonamide]
8 | < 8.00 | < 6.00 | Cc1cc(C)c(N(C)S(C)(=O)=O)c(Nc2cc(Nc3cc(C)ncn3)ncn2)c1 [Example 100, N-[2,4-dimethyl-6-[[6-[(6-methylpyrimidin-4-yl)amino]pyrimidin-4-yl]amino]phenyl]-N-methylmethanesulfonamide]
9 | 9.00 to 9.70 | 6.00 to 7.00 | Cc1cc(Nc2cc(Nc3ncccc3C(C)(C)O)ncn2)nc(C)n1 [Example 172, 2-[2-[[6-[(2,6-dimethylpyrimidin-4-yl)amino]pyrimidin-4-yl]amino]pyridin-3-yl]propan-2-ol]
10 | > 9.70 | 7.00 to 8.00 | COc1c(Nc2cc(Nc3cc(C)nc(C)n3)ncn2)ccc(-c2cnn(C)c2C)c1C [Example 84, N4-[4-(1,5-dimethylpyrazol-4-yl)-2-methoxy-3-methyl-phenyl]-N6-(2,6-dimethylpyrimidin-4-yl)pyrimidine-4,6-diamine]
11 | < 8.00 | < 6.00 | Cc1cc(Nc2cc(Nc3ccccc3S(=O)(=O)N3CCCCC3)ncn2)nc(C)n1 [Example 73, N6-(2,6-dimethylpyrimidin-4-yl)-N4-[2-(1-piperidylsulfonyl)phenyl]pyrimidine-4,6-diamine]
12 | > 9.70 | > 8.00 | Cc1c(-c2cnc(Nc3cc(Nc4ccc(F)cn4)ncn3)c(S(C)(=O)=O)c2)cnn1C [Example 152, N4-[5-(1,5-dimethylpyrazol-4-yl)-3-methylsulfonyl-2-pyridyl]-N6-(5-fluoro-2-pyridyl)pyrimidine-4,6-diamine]
13 | > 9.70 | > 8.00 | Cc1cc(Nc2cc(Nc3ccc(C4CCCCO4)cc3N(C)S(C)(=O)=O)ncn2)nc(C)n1 (centres unmarked) [Example 107, N-[2-[[6-[(2,6-dimethylpyrimidin-4-yl)amino]pyrimidin-4-yl]amino]-5-tetrahydropyran-2-yl-phenyl]-N-methyl-methanesulfonamide]

The next lines start with the compound.

Row | SMILES | pKd [1] | pIC50 [2]
14 | COc1c(Nc2cc(Nc3cc(C)nc(C)n3)ncn2)cccc1-c1nnn(C)n1 [Example 41, N4-(2,6-dimethylpyrimidin-4-yl)-N6-[2-methoxy-3-(2-methyltetrazol-5-yl)phenyl]pyrimidine-4,6-diamine] | > 9.70 | 7.00 to 8.00
15 | COc1c(Nc2cc(Nc3cc(C)nc(C)n3)ncn2)cccc1-c1ncn(CC2CC(F)(F)C2)n1 [Example 53, N6-[3-[1-[(3,3-difluorocyclobutyl)methyl]-1,2,4-triazol-3-yl]-2-methoxyphenyl]-N4-(2,6-dimethylpyrimidin-4-yl)pyrimidine-4,6-diamine] | 9.00 to 9.70 | 6.00 to 7.00
16 | Cc1cc(Nc2cc(Nc3nccc(C)c3N(C)S(C)(=O)=O)ncn2)nc(C)n1 [Example 61, N-(2-((6-((2,6-dimethylpyrimidin-4-yl)amino)pyrimidin-4-yl)amino)-4-methylpyridin-3-yl)-N-methylmethanesulfonamide] | 8.00 to 9.00 | 6.00 to 7.00
17 | COc1c(Br)cccc1Nc1cc(Nc2cc(C)nc(C)n2)ncn1 [Example 50, N6-(3-bromo-2-methoxy-phenyl)-N4-(2,6-dimethylpyrimidin-4-yl)pyrimidine-4,6-diamine] | 8.00 to 9.00 | 6.00 to 7.00
18 | COc1c(Nc2cc(Nc3cc(C)nc(C)n3)ncn2)cccc1-c1cc(C(F)(F)F)nn1C [Example 36, N6-(2,6-dimethylpyrimidin-4-yl)-N4-[2-methoxy-3-[2-methyl-5-(trifluoromethyl)pyrazol-3-yl]phenyl]pyrimidine-4,6-diamine] | 8.00 to 9.00 | < 6.00
19 | COc1c(Nc2cc(Nc3cc(C)nc(C)n3)ncn2)cccc1-c1ncn(CC2CCOCC2)n1 [Example 52, N4-(2,6-dimethylpyrimidin-4-yl)-N6-[2-methoxy-3-[1-(tetrahydropyran-4-ylmethyl)-1,2,4-triazol-3-yl]phenyl]pyrimidine-4,6-diamine] | 9.00 to 9.70 | 6.00 to 7.00
20 | COc1c(Nc2cc(Nc3ccc(F)cn3)ncn2)cccc1-c1ncn(C)n1 [Example 65, N4-(5-fluoro-2-pyridyl)-N6-[2-methoxy-3-(1-methyl-1,2,4-triazol-3-yl)phenyl]pyrimidine-4,6-diamine] | 9.00 to 9.70 | 7.00 to 8.00
21 | COc1c(Nc2cc(Nc3cc(C)nc(C)n3)ncn2)cccc1-c1nc(C)nn1C [Example 40, N6-(2,6-dimethylpyrimidin-4-yl)-N4-[3-(2,5-dimethyl-1,2,4-triazol-3-yl)-2-methoxy-phenyl]pyrimidine-4,6-diamine] | 8.00 to 9.00 | 6.00 to 7.00
22 | Cc1cc(Nc2cc(Nc3ccc(Br)cc3N(C)S(C)(=O)=O)ncn2)nc(C)n1 [Example 67, N-[5-bromo-2-[[6-[(2,6-dimethylpyrimidin-4-yl)amino]pyrimidin-4-yl]amino]phenyl]-N-methyl-methanesulfonamide] | > 9.70 | 7.00 to 8.00
